Assay [1] is described as follows: Peroxynitrite-induced oxidation of dihydrorhodamine-123. The class given is biochemical. The note with it: peroxynitrite 1 μM, dihydrorhodamine 123 10 μM, pH 7.4. An excerpt: Mitochondrial oxidative stress production To determine if increased oxidative stress occurred in mitochondrial fractions, the levels of CoASH, CoASSG, aconitase, ascorbate, cysteine, methionine and 3-NT were examined in the forebrain of Sod2 −/− mice at 15-16 days old. GSH is the most abundant thiol containing antioxidant in tissues and brain (Meister & Anderson (1983) Annu Rev Biochem 52, 711-60) and plays an important role in preventing oxidative damage. […] To determine if direct scavenging of ONOO− could result in decreased 3NT levels by AEOL11207, we measured its ability to inhibit ONOO-induced oxidation of dihydrorhodamine-123.
Measurement of peroxynitrite-induced oxidation of dihydrorhodamine-123 inhibition by metalloporphyrins The peroxynitrite-dependent oxidation of dihydrorhodamine-123 to rhodamine-123 is measured based on previously described methods (Kooy et al. (1994) Free Radic Biol Med 16, 149-56; Szabo, et al. (1996) FEBS Lett 381, 82-6). […] After 10 min incubation at room temperature, the fluorescence of rhodamine 123 was measured using a fluorimeter (Perkin-Elmer, Norwalk, Conn.) at an excitation wavelength of 500 nm, emission wavelength of 536 nm

A further assay has as its system B6D2F2 Sod2−/− mice. Nature of the assay: Behavioral seizure evaluation and survival of Sod2−/− mice.
[2] abbreviates: Sod2−/− mice, 5 mg/kg s.c. daily from P5, vs vehicle, 5 mg/kg.

SMILES strings stand for the structures. Entries after “also recorded” stand apart in the source; their conditions may differ.

Excerpt for B6D2F2 Sod2−/− mice: The model utlizes cross-bred C57BL6XDBA2F2 (B6D2) mutant mice lacking manganese superoxide dismutase (MnSOD or Sod2), a critical mitochondrial antioxidant.
Chronic Video Monitoring and Seizure Scoring: Sod2−/− mice and wild type littermates aged P7-˜P21 are digitally recorded 8 hrs/day in a custom designed plexiglass cage using a Q-See QD14B video monitoring system connected to a recordable DVD. DVD recordings are saved and reviewed by a trained observer blind to genotype and/or treatment for scoring of seizure severity, duration, and frequency. Seizure severity will be rated using the following scale: 1=immobilization & staring, 2=head-nodding, occasional forelimb clonic and tonic activity, 3=continuous forelimb clonic and tonic activity, 4=generalized seizures with falling, running and jumping.
The mutant mice were monitored on a daily basis to get an accurate birth and death data. Pups were not culled or handled before P5 to avoid maternal rejection.
Metalloporphyrin (AEOL11207) administration B6D2F1 Sod2−/− mice and their wild-type littermates (control mice) were treated with AEOL11207 (5 mg/kg) or vehicle by subcutaneous (s.c.) injection daily starting at 5 days of age until death or being sacrificed. AEOL11207 was dissolved in dimethyl sulfoxide (DMSO) and diluted with sterilized phosphate buffered saline (PBS) to achieve the desired final concentration (1% DMSO). The control animals were injected with sterilized PBS containing 1% DMSO. The animals were divided into four different groups: 1) control mice +vehicle; 2) B6D2F1 Sod2−/− mice+vehicle; 3) control mice +AEOL11207; 4) B6D2F1 Sod2−/− mice +AEOL11207. The treated and untreated mice were sacrificed at 15-16 days old for pathology and biochemistry assays or until death for survival and seize behavioral evaluation.
During the weaning period (P15-P18) mice were recorded in the presence of their mothers, and individually thereafter. Video was digitally recorded (Panasonic DMR-ES 15) and stored on DVD-R′s for observation and quantification of seizure number, duration, frequency, and severity by an observer blind to treatments. Seizure severity was scored according to the following scale: 1=immobilization and staring, 2=head-nodding, shaking, 3=forelimb tonic/clonic activity, 4=continuous forelimb tonic/clonic activity with falling, running or jumping. Due to the presence of abnormal gait and posturing in Sod2^−/− mice, only spontaneous motor seizures with scores>3 were included for comparison between groups. The scoring and analysis was conducted by an investigator blinded to genotype and treatment.
Statistical analyses Survival analysis was performed using the Kaplan-Meier method. […] P values less than 0.05 were considered significant.

The IC50 is the concentration that inhibits the measured activity by half. Turning to `COC(=O)c1c2nc(c(C(F)(F)F)c3ccc([n-]3)c(C(=O)OC)c3nc(c(C(F)(F)F)c4ccc1[n-]4)C=C3)C=C2.[Cl-].[Mn+3]` [AEOL11207], the IC50 in assay [1] was 3.7 µM. For the same compound, the “Sod2−/− mice surviving beyond 15 days old” value with B6D2F2 Sod2−/− mice (5 mg/kg daily, vehicle ~48%) is “all”. For the same compound, the “Sod2−/− mice exhibiting spontaneous tonic-clonic seizures” value in the assay on B6D2F2 Sod2−/− mice (P15-P20, daily observation, all vehicle-treated mice) came to 37%. Besides, in the assay on B6D2F2 Sod2−/− mice (setting [2]), the “frequency of spontaneous behavioral seizures” value is recorded as “significantly decreased; also recorded: decrease; also recorded: significantly attenuates”, the seizure severity result is “but not seizure duration or severity; also recorded: no significant changes” and the “total number of spontaneous behavioral seizures” value is “decrease; also recorded: significantly attenuates”. The compound also gave an average lifespan in the assay on B6D2F2 Sod2−/− mice (Sod2−/− mice, 5 mg/kg s.c. daily starting at 5 days of age, 5 mg/kg) of 20.33 ± 2.00 days. Moreover, the average lifespan in the assay on B6D2F2 Sod2−/− mice (Sod2−/− mice, 5 mg/kg s.c. daily starting at 5 days of age, listed as AEOL 11207, 5 mg/kg) worked out at 20.383 ± 0.43 days. Also, the average lifespan result in the assay on B6D2F2 Sod2−/− mice (Sod2−/− mice, daily treatment 2.5 mg/kg) is “no significant increase”. For the same compound, in the assay with B6D2F2 Sod2−/− mice (Sod2−/− mice, s.c. from postnatal day 5), the “behavioral seizure characteristics / seizure parameters” value is on record as “attenuates; also recorded: significantly attenuated; also recorded: ameliorates”.

These data come from US20120289492A1, “METHODS OF TREATING MITOCHONDRIAL DISORDERS USING METALLOPORPHYRINS” (priority 2009, published 2012).
